Experimental data from patent US11401243B2, “Quinoline derived small molecule inhibitors of nicotinamide N-methyltransferase (NNMT) and uses thereof” (priority 2017, dated 2022).
Entries after “also recorded” stand apart in the source; their conditions may differ. Where two headings read alike, the source gives them in different places.

Experiments:
[1] = target: T1, human NNMT (mt-hNNMT) (Homo sapiens, UniProt P40261, E101A/E103A/K100A); experiment: NNMT activity assay (HPLC-UV detection of MNA), NNMT IC50 curves; conditions: for IC50: NI = no observable inhibition
T1 sequence (P40261 1-261 K100A/E101A/E103A limits assumed): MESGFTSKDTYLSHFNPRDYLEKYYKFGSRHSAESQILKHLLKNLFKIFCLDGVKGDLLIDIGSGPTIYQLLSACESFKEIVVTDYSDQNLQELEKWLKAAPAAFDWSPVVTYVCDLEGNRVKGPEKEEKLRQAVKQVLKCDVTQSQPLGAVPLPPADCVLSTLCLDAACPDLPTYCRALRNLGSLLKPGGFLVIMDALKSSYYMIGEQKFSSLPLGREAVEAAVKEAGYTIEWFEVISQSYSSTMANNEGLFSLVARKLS

[2] = Parallel artificial membrane permeability assay (PAMPA); type: in vitro ADME; conditions: for Papp at 4 h, 400 μM / Flux: 400 μM in PBS, room temperature, 4 h; for Papp at 4 h, 400 μM: read-out: Flux; for Permeability Classification (passive transport): BCS classification
Description: Samples were tested in triplicates in three separate experiments.

[3] = test system: NNMT activity in 3T3-L1 pre-adipocytes and differentiated adipocytes; experiment: Quantitative measurement of NNMT reaction product 1-MNA in cultured cells (LC/MS/MS); type: cell-based; conditions: 10 μM, 24 h
Description: Differentiation of 3T3-L1 pre-adipocytes. […] Briefly, standard culture media was supplemented with scheduled addition of adipogenic agents [3-isobutyl-1methyl xanthine (IBMX), Sigma Aldrich; MO, USA), dexamethasone (Sigma Aldrich; MO, USA), insulin (Gibco Life Technologies Inc.; Grand Island, N.Y., USA)] over 10 days to promote differentiation of 3T3-L1 fibroblasts into adipocytes; a combination of 1 mM IBMX, 1 μM dexamethasone, and 10 μg/ml of insulin in media were added to fully confluent 3T3-L1 fibroblasts for three days (days 0-3) to initiate differentiation. At day 3, the media was replaced with culture media supplemented with insulin (10 μg/ml). After day 6, cells were maintained in culture media until described experiments were begun (days 8-10).
Cellular 1-MNA concentrations were determined using an ultra-sensitive high-resolution AB Sciex 6500 Q-trap mass spectrometer coupled to an Agilent 1260 ultra-high pressure liquid chromatography (LC/MS/MS) system. Using multiple reaction monitoring (MRM) positive ion mode, the 1-MNA NNMT reaction product was quantified from peak area ratios using AB Sciex Analyst and MultiQuant 2.1 software and the parent precursor and Q3 masses set to m/z 137.1 and 94.1, respectively. Fragment ions at m/z of 92.1 and 77.9 were additionally used for the detection and confirmation of 1-MNA, respectively. […]. To determine the effect of NNMT inhibitor on NNMT activity in the pre-adipocytes and differentiated adipocytes (8×10^4 cells/well seeded prior to beginning differentiation), cells were treated with 30 μM inhibitor for 24 h. Similarly, to compare the relative effects of multiple NNMT inhibitors on NNMT activity in cultured adipocytes, differentiated adipocytes in 6-well plates were treated with 10 μM test compound for 24 h. Following treatment, media was replaced with 80% (v/v) methanol (cooled to −80° C.) containing 500 nmol 6-chloronicotinamide (6-CN) as an internal standard (IS) to extract cellular metabolites. Adherent cells were scrapped, then centrifuged at 4° C. and 13000 g for 15 min, and the resulting supernatants processed using established protocols. […]. Data were subsequently normalized to the IS peak area and transformed as % control values for cross-sample comparisons. […] Choice of inhibitor concentrations and time period was chosen based on the results from the MTT studies.

[4] = test system: 3T3-L1 pre-adipocytes cells; experiment: MTT cell viability assay; type: cell-based; conditions: 3T3-L1 pre-adipocytes, 24 h; for cytotoxicity: 600 μM (highest concentration tested)
Description: Cells were treated for 24 h with 0.1-600 μM NNMT inhibitors in cell culture media. A 24 h time point was chosen based on a previous report of using this time period for transfecting or treating 3T3-L1 cells with NNMT anti-sense oligonucleotides or a small molecule NNMT product inhibitor (1-MNA), respectively, for phenotypic measures. MTT (3-(4,5-dimethylthiazol-2-yl)-2,5-diphenyltetrazolium bromide) (ATCC; Manassas, Va., USA) was added to each well and assayed according to the manufacturer's instructions. Absorbance corresponding to the amount of formazan dye produced by treated cells was normalized to that produced by control (untreated) cells to calculate % viable cells in the treated samples.

[5] = Bi-directional permeability assay with Caco-2 cells; conditions: human; for efflux ratio at 2 h, 10 μM: Caco-2; for Papp A→B at 2 h, 10 μM / Papp B→A at 2 h, 10 μM: Caco-2, pH 7.4
[6] = test system: Caco-2 cells; experiment: as above; conditions: Caco-2
[7] = target: recombinant human NAMPT enzyme (Homo sapiens, UniProt P43490); experiment: NAMPT activity assay (fluorometric); type: biochemical; conditions: concentrations between 30 and 600 μM (data not shown)
recombinant human NAMPT enzyme, sequence (P43490 whole entry): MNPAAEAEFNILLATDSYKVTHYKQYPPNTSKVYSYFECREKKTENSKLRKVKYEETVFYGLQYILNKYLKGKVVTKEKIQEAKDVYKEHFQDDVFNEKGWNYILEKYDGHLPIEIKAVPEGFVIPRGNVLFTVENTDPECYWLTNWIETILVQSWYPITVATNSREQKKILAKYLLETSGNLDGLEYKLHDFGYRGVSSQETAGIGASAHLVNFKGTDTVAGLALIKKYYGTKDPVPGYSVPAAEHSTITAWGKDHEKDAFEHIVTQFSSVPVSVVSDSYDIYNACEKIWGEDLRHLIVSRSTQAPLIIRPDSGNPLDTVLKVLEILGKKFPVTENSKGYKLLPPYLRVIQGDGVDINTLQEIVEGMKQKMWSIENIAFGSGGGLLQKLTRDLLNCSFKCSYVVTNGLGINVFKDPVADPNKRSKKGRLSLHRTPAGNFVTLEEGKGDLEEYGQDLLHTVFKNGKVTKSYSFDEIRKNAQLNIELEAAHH

[8] = target: recombinant human PRMT3 enzyme (Homo sapiens, UniProt O60678); experiment: PRMT3 activity assay (radiometric); type: biochemical; conditions: NC: not calculable (no significant inhibition); read-out: IC50, Protein arginine methyltransferase 3
recombinant human PRMT3 enzyme, sequence (O60678 whole entry): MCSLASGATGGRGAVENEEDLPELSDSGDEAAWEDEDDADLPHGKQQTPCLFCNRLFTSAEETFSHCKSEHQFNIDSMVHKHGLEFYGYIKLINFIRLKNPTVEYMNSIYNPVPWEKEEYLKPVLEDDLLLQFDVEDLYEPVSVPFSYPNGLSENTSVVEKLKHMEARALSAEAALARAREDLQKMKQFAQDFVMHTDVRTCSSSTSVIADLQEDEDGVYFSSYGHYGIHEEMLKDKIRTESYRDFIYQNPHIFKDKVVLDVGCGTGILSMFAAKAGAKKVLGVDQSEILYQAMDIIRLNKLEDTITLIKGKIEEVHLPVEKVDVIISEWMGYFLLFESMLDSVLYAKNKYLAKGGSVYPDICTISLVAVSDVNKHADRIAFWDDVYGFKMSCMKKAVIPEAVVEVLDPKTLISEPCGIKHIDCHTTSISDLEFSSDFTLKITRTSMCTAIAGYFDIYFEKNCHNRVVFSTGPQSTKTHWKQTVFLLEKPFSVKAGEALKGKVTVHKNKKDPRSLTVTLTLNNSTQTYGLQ
Source text: Test compounds were screened in biochemical assays for activity against three structurally similar methyltransferases, including catechol-O-methyltransferase (COMT), DNA (cytosine-5)-methyltransferase 1 (DNMT1), and protein arginine methyltransferase 3 (PRMT3). Additional biochemical assays were used to test the ability of compounds to inhibit nicotinamide phosphoribosyl transferase (NAMPT) and NAD+-dependent protein deacetylase sirtuin 1 (SIRT1), two enzymes in the NAD+ biosynthesis/salvage pathway. All assays were performed by Reaction Biology Corporation (RBC; Malvern, Pa., USA) and complete assay details are noted below. For each test compound, IC50 values were calculated from dose-response curves established with 10 concentrations of a half-log dilution series. For each assay, established enzyme specific inhibitors were included as positive controls for enzyme function and assay reproducibility. IC50 values were determined by non-linear least-squares fitting of a 4-parameter dose-response curve to collected data points (Graphpad Prism 7.0; La Jolla, Calif., USA).
PRMT3 activity assay. […] The analogues, 1,8-diMQ and 5-amino-1MQ were tested at concentrations from 200 μM-10 nM and 600 μM-10 nM, respectively. Reactions were performed with 5 μM histone H3 (histone L-arginine) substrate, 1 μM radiolabeled S-adenosyl-L-[methyl-3H]methionine (SAM) co-substrate, and recombinant human PRMT3 enzyme. Activity was monitored via quantification of radiolabeled reaction product histone [methyl-3H]-L-arginine.

[9] = NNMT Inhibition IC50, mean ± SD of duplicate or triplicate measurements

For `CC[n+]1ccc(C)c2ccccc21` [2a], the IC50 [1, 9] was 8.7 ± 2.6 µM.

`Cc1ccc2c(ccc(C)[n+]2C)c1` [2n] gave an IC50 [1, 9] of over 1000 µM.

In the case of `CC(=O)C[n+]1cccc2cc(Cl)ccc21` [2g], the IC50 [1, 9] is reported as over 1000 µM.

With `Cc1ccc2ccccc2[n+]1C` [1b] the IC50 [1, 9] was 21 ± 2.1 µM.

In the case of `C[n+]1cccc2cc(N)ccc21.[I-]` [1m, 6-amino-1-methylquinolin-1-ium Iodide], the “inhibitory activity against NNMT (in words)” value [1] is reported as “exhibited inhibitory activity” and the IC50 [1, 9] is reported as 34.4 ± 9.6 µM.

With `CC(C(=O)c1ccc(Br)cc1)[n+]1cccc2ccccc21` (stereo not drawn) [1v] the IC50 [1, 9] was over 1000 µM.

Molecule `C[n+]1cccc2cc(F)ccc21` [1k] has an IC50 [1, 9] of 5.7 ± 1.8 µM.

With `C[n+]1cc(N)cc2cc(F)ccc21` [2j, 3-amino-6-fluoro-1-methylquinolin-1-ium] the Papp at 4 h, 400 μM [2] was 10.8 nm/s, the “Permeability Classification (passive transport)” value (from here on “Permeability Classification”) [2] was “Moderate permeability” and the “1-MNA levels in differentiated adipocytes relative to control” value [3] was “significantly decreased”. The “inhibitory activity against NNMT (in words)” value [1] was “inhibitory activity” and the IC50 [1, 9] was 1.2 ± 0.2 µM.

`C[n+]1cccc2ccc(O)cc21` [1p] gave an IC50 [1, 9] of 709 ± 179 µM.

With `C[n+]1cccc2ccc(N)cc21` [1o] the Papp at 4 h, 400 μM [2] was 20.5 nm/s, the “Permeability Classification” value ([2]; listed as 7-amino-1MQ) was “high passive and active transport; also recorded: High permeability” and the cell viability ([4]; 10 μM) was “did not impact cell viability”. For the same molecule, the cytotoxicity [4] was about 40%, the “cytotoxicity relative to untreated cells” value ([4]; 100-300 μM) was “modest cytotoxicity” and the efflux ratio at 2 h, 10 μM [5] was 1.52. For the same molecule, the Papp A→B at 2 h, 10 μM [5] was 260 nm/s, the Papp B→A at 2 h, 10 μM [5] was 396 nm/s and the “Classification (active transport / efflux)” value ([6]; listed as 7-amino-1MQ) was “no detectable efflux; also recorded: High permeability”. The IC50 [1, 9] was 2.6 ± 0.5 µM.

In the case of `CC[n+]1cccc2ccccc21` [1s], the IC50 [1, 9] is reported as 27.1 ± 5.4 µM.

For “1-methylnicotinamide [reference compound]”, the Flux [2] was 0 cm/s, the “Permeability Classification” value [2] was “No permeability” and the “Permeability Classification” value ([2]; listed as 1-MNA) was “no passive permeability”.

Work on `CC(=O)C[n+]1cccc2cccc(O)c21` [2d] yielded an IC50 [1, 9] of 40.6 ± 13 µM.

Molecule `O=C1C2CC=C(Cl)CC2C(=O)N1CCC[n+]1cccc2ccccc21` (stereo not drawn) [1w] has an IC50 [1, 9] of over 1000 µM.

Molecule `C[n+]1ccc(N)c2ccccc21` [1i] has an IC50 [1, 9] of 11.4 ± 2.1 µM.

With `C[n+]1cc(C#N)cc2ccccc21` [1e] the IC50 [1, 9] was 23.8 ± 5.6 µM.

With `COc1ccc2c(ccc[n+]2C)c1` [1n] the IC50 [1, 9] was 120 ± 50.1 µM.

With `O=C(C[n+]1cccc2ccccc21)c1ccccc1` [1u] the IC50 [1, 9] was over 1000 µM.

`Cc1ccc2c(ccc[n+]2CC(=O)c2ccccc2)c1` [2i] gave an IC50 ([1]; read-out: NNMT Inhibition IC50, mean ± SD of duplicate or triplicate measurements) of over 1000 µM.

For `C[n+]1cccc2c(N)c(F)ccc21` [5-amino-6-fluoro-1MQ], the “inhibition of NAMPT (in words)” value [7] was “no inhibition”.

`Nc1ncnc2c1ncn2[C@@H]1O[C@H](CSCC[C@H](N)C(=O)O)[C@@H](O)[C@H]1O` [SAH, S-adenosylhomocysteine, reference compound] gave an IC50 [8] of 6.6 ± 1.2 µM.

`COCC[n+]1cccc2ccccc21` [1t] showed an IC50 [1, 9] of over 1000 µM.

With `Cc1cc[n+](C)c2ccccc12` [1h] the IC50 [1, 9] was 7.5 ± 2.2 µM.

For `C[n+]1c(N)ccc2ccccc21.[I-]` [1c, 2-amino-1-methylquinolin-1-ium Iodide], the “inhibitory activity against NNMT (in words)” value [1] was “exhibited inhibitory activity” and the IC50 [1, 9] was 6.3 ± 1.1 µM.

In the case of `C[n+]1c(N)c(N)cc2ccccc21` [2m], the Papp at 4 h, 400 μM [2] is reported as 39 nm/s, the “Permeability Classification” value ([2]; listed as 2,3-diamine-1MQ) is reported as “High permeability” and the “Permeability Classification” value ([2]; listed as 2,3-diamino-1MQ) is reported as “high passive permeability”. The cell viability ([4]; 300 μM) was “did not impact cell viability”, the cytotoxicity [4] was about 40% and the “1-MNA levels in differentiated adipocytes relative to control” value [3] was “significantly decreased”. For the same molecule, the efflux ratio at 2 h, 10 μM [5] was 4.03, the Papp A→B at 2 h, 10 μM [5] was 52.7 nm/s and the Papp B→A at 2 h, 10 μM [5] was 212 nm/s. For the same molecule, the “Classification (active transport / efflux)” value ([6]; listed as 2,3-diamine-1MQ) was “Moderate permeability”, the “Classification (active transport / efflux)” value ([6]; listed as 2,3-diamino-1MQ) was “moderate bi-directional active transport with moderate efflux ratio” and the “inhibitory activity against NNMT (in words)” value [1] was “inhibitory activity”. The IC50 [1, 9] was 2.8 ± 0.5 µM.

In the case of `CC(=O)C[n+]1cccc2cc(O)ccc21` [2h], the IC50 [1, 9] is reported as over 1000 µM.

For `C[n+]1cc(Nc2ccccc2)cc2ccccc21` [1g], the IC50 [1, 9] was over 1000 µM.

Molecule `CCC[n+]1cccc2cc(C)ccc21` [2f] has an IC50 [1, 9] of over 1000 µM.

For `c1ccc2ncccc2c1` [Quinoline], the Flux [2] was 3.39e-05 cm/s and the “Permeability Classification” value [2] was “High permeability”.

In the case of `C[n+]1ccc(Cl)c2cccc(C(F)(F)F)c21.O=S(=O)([O-])C(F)(F)F` [2l, 4-chloro-1-methyl-8-(trifluoromethyl)quinolin-1-ium Trifluoromethanesulfonate], the “inhibitory activity against NNMT (in words)” value [1] is reported as “inhibitory activity” and the IC50 [1, 9] is reported as over 1000 µM.

With `CNc1cc2ccccc2[n+](C)c1.[I-]` [1f, 1-methyl-3-(methylamino)quinolin-1-ium Iodide] the “inhibitory activity against NNMT (in words)” value [1] was “exhibited inhibitory activity” and the IC50 [1, 9] was 4 ± 1.5 µM.

`Cc1cc[n+](CCO)c2ccccc12` [2c] showed an IC50 [1, 9] of 33.5 ± 9.9 µM.

For `OC(CBr)C[n+]1cc(Br)cc2ccccc21` (stereo not drawn) [2e], the IC50 [1, 9] was over 1000 µM.

For `Cc1ccc(C(F)(F)F)c2ccc[n+](C)c12` [2k], the “inhibitory activity against NNMT (in words)” value [1] was “inhibitory activity” and the IC50 [1, 9] was 87 ± 26.1 µM.

For `C[n+]1cccc2cccc(O)c21` [1r], the IC50 [1, 9] was 95.2 ± 21 µM.

Molecule `CC[n+]1cccc2cccc(C)c21` [2b] has an IC50 [1, 9] of 3.1 ± 1.4 µM.

For `CNC(=C[N+](=O)[O-])NCCSCc1ccc(CN(C)C)o1` [Ranitidine, reference compound], the “Classification (active transport / efflux)” value [6] was “Low permeability”.

`C[n+]1cc(N)cc2ccccc21` [1d] showed an IC50 [1, 9] of 2.9 µM.

With `C[n+]1cccc2ccccc21` [1a, 1-methylquinolinium] the Flux [2] was 0 cm/s, the “Permeability Classification” value [2] was “No permeability” and the “Permeability Classification” value ([2]; listed as 1-MQ) was “lacked passive diffusion properties”. The IC50 [1, 9] was 12.1 ± 3.1 µM.
